This is an account of results in patent US9901583B2, “Method of treating non-small cell lung cancer and/or small cell lung cancer using thienotriazolodiazepine compounds” (ONCOETHIX GMBH, priority 2014, dated 2018).

Data set [1] relates to Akt phosphorylation on T308. As to conditions: cited from earlier work.
Data set [2] concerns Akt phosphorylation on S473. As to conditions: cited from earlier work.
The next data set has as its target FKBP12 (Homo sapiens, UniProt P62942). As to conditions: cited from earlier work.
The subject of another data set is H2226. Description: Cell cycle analysis (propidium iodide, FACScan). In kind it is cell-based. As to conditions: H2226, 24 h exposure at 500 nM.
The test system of a further data set is H2228 cells. Kind of data set: Combination with crizotinib, Chou-Talalay combination index. In kind it is cell-based. As to conditions: 48 h concomitant exposure, dihydrate. The method, then: (§1) Protein levels were analyzed by Western Blot with commercial antibodies; RT-PCR was done with Fast SYBR Green Master Mix on a StepOnePlus Real-Time PCR System at baseline, 4 and 24 h post-treatment. For cell cycle analysis cells were stained with propidium iodide and DNA content analyzed with a FACScan flow cytometer. Compound (1-1) was combined with the targeted agents everolimus and crizotinib and the combination index (CI) determined by the Chou-Talalay method.
(§2) Materials and Methods. Five established NSCLC cell lines, HOP62, HOP92, A549, H2228, and H3122 harboring different oncogenic mutations for KRAS, LKB I, TP53 and ALK (FIG. 13) were exposed to increasing doses of compound (1-1) (OncoEthix SA, Switzerland) for 72 h and cell proliferation was evaluated by MTT assays. Results represent the mean±95% CI of at least 3 independent experiments performed in triplicate. Protein levels were analyzed by Western blot using commercial antibodies. For cell cycle analysis cells were stained with PI and analyzed using a FACScan flow cytometer after 24 h of treatment. […] Concomitant compound (1-1) combination studies were performed in cell lines exposed for 48 h to increasing doses of compound (1-1) alone or in combination with everolimus or crizotinib, and assessed using the Chou & Talalay method. Combination Index (CI) was determined by median effect plot analysis using CalcuSyn software. […]

Data set [3] has as its system NSCLC cell lines (H2228, H3122, A549, HOP62, HOP92). Kind of data set: MTT assay, growth inhibition, NSCLC panel. As to conditions: 72 h, 72 h exposure, 4 of 5 NSCLC cell lines. In kind it is cell-based. The protocol: as §1, §2
Another data set has as its system DMS114 cells. Kind of data set: MTT assay, growth inhibition. In kind it is cell-based. As to conditions: Homo sapiens, DMS-114, read-out: GI50 (95% CI), 72 h exposure. The method, then: (§3) Protein levels were analyzed by Western Blot using commercial antibodies and RT-PCR was performed with Fast SYBR Green Master Mix on a StepOnePlus Real-Time PCR System at baseline, then 4 and 24 h post-treatment. For cell cycle analysis, cells were stained with propidium iodide and analyzed for DNA content with a FACScan flow cytometer.
(§4) Cell lines were exposed to increasing doses of compound (1-1) for 72 hours, and cell proliferation was evaluated with the MTT assay. GI50 and Emax values were calculated with the equation for sigmoidal dose response using Prism 5.00 for Windows. Results represent the mean±95% CI of at least 3 independent experiments performed in triplicate.
(§5) For cell cycle analysis, cells were stained with propidium iodide and analyzed with a FACScan flow cytometer. RNA was isolated after treatment with DMSO or OTX015 (500 nM) for 2, 4, 8 or 12 and 24 h and gene expression profiles (GEP) were obtained in all NSCLC and 2 SCLC (H82 and DMS114) cell lines with Illumina HumanHT-12 Expression BeadChips. Data mining was done with LIMMA, GSEA, Metacore.
On the technique in general: Formazan colour is commonly taken as a measure of viable cells.

The next data set relates to H82 cells. Kind of data set: MTT assay, growth inhibition. As to conditions: Homo sapiens, NCI-H82, 72 h exposure. The data set is classed as cell-based. The method, then: as §3, §4, §5
For the next data set, the system named is DMS79 cells. Description: MTT assay, growth inhibition. The data set is classed as cell-based. As to conditions: Homo sapiens, DMS-79, 72 h exposure. The method, then:
as §3, §4, §5

A further data set deals with H69 cells. Kind of data set: MTT assay, growth inhibition. In kind it is cell-based. As to conditions: Homo sapiens, NCI-H69, 72 h exposure. The protocol:
as §3, §4, §5

The test system of the next data set is H3122 cells. Kind of data set: H3122 tumor-bearing mice. The data set is classed as in vivo, male athymic NMRI nude mice. As to conditions: 3 weeks of treatment. The method, then: In vivo studies: 5×10^6 H3122 cells were injected in the flank of male athymic NMRI nude mice, and mice were randomized to 3 groups (8 mice/group) when tumor volume reach 100 mm^3; vehicle (PBS, once daily, oral continuous), Compound (1-1) (50 mg/kg/bidaily, gavage, continuous), or crizotinib (25 mg/kg/daily, gavage, continuous).

A short description of data set [4]: Oral exposure in the rat (pharmacokinetics). The data set is classed as in vivo, Sprague Dawley rats. As to conditions: 1 mg/kg intravenous, rats. The protocol:
The oral bioavailability of three formulations of solid dispersions of compound (1-1) was determined in rats. The three dispersions chosen were the 25% dispersion of compound (1-1) in PVP, the 25% dispersion of compound (1-1) in HPMCAS-MG, and the 50% dispersion of compound (1-1) in HPMCAS-MG. The animals used in the study were Specific Pathogen Free (SPF) Hsd:Sprague Dawley rats obtained from the Central Animal Laboratory at the University of Turku, Finland. The rats were originally purchased from Harlan, The Netherlands. The rats were female and were ten weeks of age, and 12 rats were used in the study. […]
The oral dosing solutions containing the 25% dispersion of compound (1-1) in PVP, the 25% dispersion of compound (1-1) in HPMCAS-MG, and the 50% dispersion of compound (1-1) in HPMCAS-MG were prepared by adding a pre-calculated amount of sterile water for injection to containers holding the dispersion using appropriate quantities to obtain a concentration of 0.75 mg/mL of compound (1-1). […]
Pharmacokinetic parameters were calculated with the Phoenix WinNonlin software package (version 6.2.1, Pharsight Corp., CA, USA) with standard noncompartmental methods. The elimination phase half-life (t1/2) was calculated by least-squares regression analysis of the terminal linear part of the log concentration-time curve. […]

The test system of another data set is HOP92. Description: Cell cycle analysis (propidium iodide, FACScan). As to conditions: HOP92, 24 h exposure at 500 nM. The data set is classed as cell-based. The protocol:
as §1, §2

Another data set has as its system H3122. Kind of data set: Cell cycle analysis (propidium iodide, FACScan). The data set is classed as cell-based. As to conditions: H3122, 24 h exposure at 500 nM. The protocol:
as §1, §2

The test system of another data set is PI3K/mTOR. As to conditions: cited from earlier work.
The target of the next data set is PI3Kβ (p110β) (Homo sapiens, UniProt P42338). As to conditions: cited from earlier work.
Another data set concerns the target PI3Kγ (p110γ) (Homo sapiens, UniProt P48736). As to conditions: cited from earlier work.
In the next data set the test system is PDGFR. As to conditions: read-out: IC50 PDGFR; cited from earlier work.

pIC50, pKi: −log10 of the molar value. Where “and” joins values, the source holds several entries; their conditions need not be identical. Identical values can stand only once.

Sequence of PI3Kβ (p110β) (P42338 whole entry, species assumed): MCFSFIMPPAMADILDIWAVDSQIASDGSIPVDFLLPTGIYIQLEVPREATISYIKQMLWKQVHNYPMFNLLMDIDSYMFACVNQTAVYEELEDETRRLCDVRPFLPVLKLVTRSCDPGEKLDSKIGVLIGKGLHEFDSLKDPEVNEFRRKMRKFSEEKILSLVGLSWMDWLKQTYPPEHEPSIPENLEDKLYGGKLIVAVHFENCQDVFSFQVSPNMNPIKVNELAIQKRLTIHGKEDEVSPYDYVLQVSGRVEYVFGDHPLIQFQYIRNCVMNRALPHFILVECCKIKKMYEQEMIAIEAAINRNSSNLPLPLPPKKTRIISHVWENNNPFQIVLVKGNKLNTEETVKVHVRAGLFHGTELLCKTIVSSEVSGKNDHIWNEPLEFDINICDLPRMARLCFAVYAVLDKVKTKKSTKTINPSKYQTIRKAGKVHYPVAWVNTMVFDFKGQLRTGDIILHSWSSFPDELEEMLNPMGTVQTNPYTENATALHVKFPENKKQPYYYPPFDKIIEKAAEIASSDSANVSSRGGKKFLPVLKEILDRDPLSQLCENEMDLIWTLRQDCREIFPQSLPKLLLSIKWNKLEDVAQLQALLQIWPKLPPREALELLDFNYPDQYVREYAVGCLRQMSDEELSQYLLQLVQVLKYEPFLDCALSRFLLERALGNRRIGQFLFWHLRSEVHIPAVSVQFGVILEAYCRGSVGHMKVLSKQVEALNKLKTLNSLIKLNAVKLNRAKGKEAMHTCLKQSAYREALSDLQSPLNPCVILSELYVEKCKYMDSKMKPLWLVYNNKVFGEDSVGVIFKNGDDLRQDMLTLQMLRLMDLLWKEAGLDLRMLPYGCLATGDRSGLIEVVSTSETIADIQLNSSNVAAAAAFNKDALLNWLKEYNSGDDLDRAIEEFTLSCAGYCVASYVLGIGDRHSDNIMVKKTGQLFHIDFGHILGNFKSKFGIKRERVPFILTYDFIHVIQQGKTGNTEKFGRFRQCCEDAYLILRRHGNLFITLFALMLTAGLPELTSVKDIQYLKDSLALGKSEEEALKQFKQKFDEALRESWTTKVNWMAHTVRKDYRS
Sequence of PI3Kβ (p110β) (P27986 whole entry partner, species assumed): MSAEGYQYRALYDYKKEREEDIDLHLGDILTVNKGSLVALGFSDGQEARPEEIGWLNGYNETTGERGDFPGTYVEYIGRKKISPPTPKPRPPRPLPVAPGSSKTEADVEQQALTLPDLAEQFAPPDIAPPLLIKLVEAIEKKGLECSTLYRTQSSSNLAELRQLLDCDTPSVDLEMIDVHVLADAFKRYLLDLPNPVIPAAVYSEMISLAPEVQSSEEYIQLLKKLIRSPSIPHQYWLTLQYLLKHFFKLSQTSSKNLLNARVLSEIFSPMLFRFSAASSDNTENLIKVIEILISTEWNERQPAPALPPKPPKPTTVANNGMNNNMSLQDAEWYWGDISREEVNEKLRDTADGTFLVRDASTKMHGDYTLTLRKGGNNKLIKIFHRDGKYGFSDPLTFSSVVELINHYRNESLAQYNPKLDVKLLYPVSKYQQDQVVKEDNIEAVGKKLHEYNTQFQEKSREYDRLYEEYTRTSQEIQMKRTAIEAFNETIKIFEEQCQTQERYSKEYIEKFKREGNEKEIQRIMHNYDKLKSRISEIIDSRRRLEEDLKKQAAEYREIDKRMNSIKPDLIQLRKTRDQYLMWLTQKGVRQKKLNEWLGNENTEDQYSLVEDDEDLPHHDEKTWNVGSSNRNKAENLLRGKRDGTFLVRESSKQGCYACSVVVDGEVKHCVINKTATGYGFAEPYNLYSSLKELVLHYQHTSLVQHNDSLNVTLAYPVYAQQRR
Sequence of FKBP12 (P62942 whole entry, species assumed): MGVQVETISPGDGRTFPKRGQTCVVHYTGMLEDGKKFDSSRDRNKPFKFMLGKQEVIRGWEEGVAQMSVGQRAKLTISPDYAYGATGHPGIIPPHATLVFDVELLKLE
Sequence of PI3Kγ (p110γ) (P48736 whole entry, species assumed): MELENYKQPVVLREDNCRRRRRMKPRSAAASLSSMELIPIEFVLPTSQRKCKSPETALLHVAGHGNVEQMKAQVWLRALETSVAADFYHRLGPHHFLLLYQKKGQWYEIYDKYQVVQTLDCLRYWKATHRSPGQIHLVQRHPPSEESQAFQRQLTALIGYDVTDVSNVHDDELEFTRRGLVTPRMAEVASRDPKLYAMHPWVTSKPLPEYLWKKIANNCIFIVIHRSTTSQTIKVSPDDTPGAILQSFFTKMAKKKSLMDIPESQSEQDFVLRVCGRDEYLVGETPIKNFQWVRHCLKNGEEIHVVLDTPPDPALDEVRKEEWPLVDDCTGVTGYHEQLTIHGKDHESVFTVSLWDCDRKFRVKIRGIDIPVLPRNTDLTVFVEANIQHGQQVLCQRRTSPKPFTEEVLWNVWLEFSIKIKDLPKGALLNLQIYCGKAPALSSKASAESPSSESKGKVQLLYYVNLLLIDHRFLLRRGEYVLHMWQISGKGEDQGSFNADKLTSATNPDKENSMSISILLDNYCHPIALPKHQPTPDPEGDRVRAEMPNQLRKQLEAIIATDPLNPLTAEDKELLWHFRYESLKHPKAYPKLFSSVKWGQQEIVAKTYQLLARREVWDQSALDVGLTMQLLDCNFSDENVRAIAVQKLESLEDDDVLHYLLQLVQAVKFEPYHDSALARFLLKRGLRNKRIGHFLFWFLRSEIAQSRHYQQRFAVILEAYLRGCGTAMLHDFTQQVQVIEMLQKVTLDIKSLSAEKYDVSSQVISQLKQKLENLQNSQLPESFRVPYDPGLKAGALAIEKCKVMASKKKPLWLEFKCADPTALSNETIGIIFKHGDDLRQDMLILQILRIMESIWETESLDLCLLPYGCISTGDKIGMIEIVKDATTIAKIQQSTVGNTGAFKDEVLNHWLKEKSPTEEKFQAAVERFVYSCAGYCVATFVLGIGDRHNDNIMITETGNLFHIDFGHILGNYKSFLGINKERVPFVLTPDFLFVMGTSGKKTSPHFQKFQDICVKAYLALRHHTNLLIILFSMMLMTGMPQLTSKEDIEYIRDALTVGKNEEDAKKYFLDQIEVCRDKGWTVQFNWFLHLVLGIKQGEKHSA

As for `COc1ccc(-c2cc3c(C)nc(N)nc3n([C@H]3CC[C@H](OCCO)CC3)c2=O)cn1` [PF-04691502], the negative logarithm of the IC50 (pIC50) is 8.12 in data set [1] and 8.42 in [2].
For the compound `CO[C@H]1C[C@@H]2CC[C@@H](C)[C@@](O)(O2)C(=O)C(=O)N2CCCC[C@H]2C(=O)O[C@H]([C@H](C)C[C@@H]2CC[C@@H](OCCO)[C@H](OC)C2)CC(=O)[C@H](C)/C=C(\C)[C@@H](O)[C@@H](OC)C(=O)[C@H](C)C[C@H](C)/C=C/C=C/C=C/1C` [Everolimus], on FKBP12, the pIC50 was 8.62 to 8.80.
Turning to `Cc1sc2c(c1C)C(c1ccc(Cl)cc1)=N[C@@H](CC(=O)Nc1ccc(O)cc1)c1nnc(C)n1-2` [Compound (1-1), 2-[(6S)-4-(4-chlorophenyl)-2,3,9-trimethyl-6H-thienol[3,2-f]-[1,2,4]triazolo[4,3-a][1,4]diazepin-6-yl]-N-(4-hydroxyphenyl)acetamide dihydrate], the “reduction of percent cells in the S phase” value was found to be 42% with H2226, 40% with HOP92 and 52% in the data set on H3122. Moreover, the “combination index (CI) with crizotinib” value with H2228 cells was 0.98 and 0.9. Also, the GI50 in data set [3] is 110 to 940 nM; with DMS114 cells, 120 nM; with H82 cells, over 6000 nM; in the data set on DMS79 cells it was over 6000 nM; in the data set with H69 cells, over 6000 nM. In addition, in the data set on H3122 cells, the weight loss entry was “no weight loss was observed”. Moreover, the CI/F in data set [4] came out at 13.4 mL/min/kg.
`COc1ccc(-c2ccc3ncc4c(c3c2)n(-c2ccc(N3CCNCC3)c(C(F)(F)F)c2)c(=O)n4C)cn1` [NVP-BGT226]: the negative-log IC50 (pIC50) in the data set with PI3K/mTOR was 9.00.
For GSK2126458, the pKi at PI3Kβ (p110β) was 9.89; on PI3Kγ (p110γ), 10.62.
As to `Nc1ncnc2c1c(-c1cnc3[nH]ccc3c1)nn2C1CCCC1` [PP-121], in the data set on PDGFR, the negative-log IC50 (pIC50) was 8.70.

A word on the pIC50: it is −log10 of the IC50, conventionally taken in molar units. Broadly, the GI50 is the concentration giving 50% growth inhibition. One may read the pKi as −log10 of the Ki, conventionally taken in molar units.
